{
  "source": "patent US12035718B2",
  "about": "“Biofilm penetrating compositions and methods” (Nevada Naturals Inc., priority 2017, dated 2024)",
  "key": {"P. aeruginosa": {"system": "P. aeruginosa", "conditions": "literature reports (Musk et al.; Kim et al.); cited from earlier work"}, "[1]": {"system": "Streptococcus pyogenes, Streptococcus mitis, Staphylococcus epidermidis, and E. coli", "conditions": "10 wt % of hexylene glycol, in vitro; cited from earlier work"}, "[2]": {"conditions": "rats; cited from earlier work"}, "Candida albicans": {"system": "Candida albicans", "test": "MIC of LAE/SL mixtures (FIG. 7, FIG. 8A)", "assay_type": "cell-based", "conditions": "Example 8, FIG. 8A; solubilized in DW", "experimental": "MIC values of various mixtures of N^α-lauroyl arginine ethyl ester HCl salt and sucrose monolaurate in preventing the growth of Candida alibicans were determined. […] In comparing ratios of wt % of SL to wt % of LAE, ratios from 2:1 to 1:2 show enhancement compared to 100 wt % LAE."}, "S. epidermidis": {"system": "S. epidermidis", "test": "MIC of LAE/SL mixtures (FIG. 8B)", "assay_type": "cell-based", "conditions": "Example 8, FIG. 8B; solubilized in DW", "procedure": "In Example 8, different pathogens were tested for MIC (Minimum Inhibitory Concentration) with formulations that comprise combinations of LAE and SL. […] In FIGS. 8A and 8B the active ingredients LAE and SL were solubilized in DW as indicated and were tested. […] FIG. 8B reports MIC on combinations of LAE/SL exposed to S. epidermidis."}, "S. aureus": {"system": "S. aureus", "conditions": "Example 8, FIG. 8A; solubilized in DW", "experimental": "In Example 8, different pathogens were tested for MIC (Minimum Inhibitory Concentration) with formulations that comprise combinations of LAE and SL. […] In FIGS. 8A and 8B the active ingredients LAE and SL were solubilized in DW as indicated and were tested. FIG. 8A reports MIC combination of LAE and SL tested on Candida albicans fungi in duplicate and for gram positive S. aureus. FIG. 8B reports MIC on combinations of LAE/SL exposed to S. epidermidis."}},
  "note": "Where a name gives a salt, the structure may show the parent alone.",
  "data": [
    {"molecule": "CCCCCCCCCCCC(=O)N[C@@H](CCCNC(=N)N)C(=O)OCC", "note": "[LAE, N^α-lauroyl-L-arginine-ethyl ester]", "values": [
      {"measurement": "biofilm formation, result in words", "setting": "P. aeruginosa", "value": "inhibited biofilm formation"}
    ]},
    {"molecule": "CC(O)CC(C)(C)O", "note": "(stereo not shown) [hexylene glycol]", "values": [
      {"measurement": "killing power, comparison", "setting": "[1]", "value": "equivalent to 30 wt % of 1,3 butylene glycol or propylene glycol"}
    ]},
    {"molecule": "CCOC(=O)CC(O)(CC(=O)OCC)C(=O)OCC", "note": "[triethyl citrate]", "values": [
      {"measurement": "oral LD50", "setting": "[2]", "value": 7.0, "unit": "cc/kg"}
    ]},
    {"molecule": "Ferric ammonium citrate [reference compound]", "values": [
      {"measurement": "biofilm formation, result in words", "setting": "P. aeruginosa", "value": "inhibited biofilm formation in a dose-dependent manner"}
    ]},
    {"molecule": "sucrose laurate [SL]", "values": [
      {"measurement": "MIC, result in words", "setting": "Candida albicans", "value": "much higher MIC values than LAE or combinations of LAE/SL"},
      {"measurement": "MIC, result in words", "setting": "S. epidermidis", "value": "much higher MIC values than LAE or combinations of LAE/SL"},
      {"measurement": "MIC, result in words", "setting": "S. aureus", "value": "much higher MIC values than LAE or combinations of LAE/SL"}
    ]}
  ]
}
